Laboratory results taken from publication PMC10023787, “Trio-pharmacophore DNA-encoded chemical library for simultaneous selection of fragments and linkers” (Nature Communications, 2023).
Entries after “also recorded” stand apart in the source; their conditions may differ. Read-outs that look alike come from different tables or passages of the source.

Experiments:
MMP-2 [1] = target: T1, MMP-2 (Homo sapiens, UniProt P08253); experiment: MMP-2 inhibition assay (fluorogenic peptide substrate); format: biochemical; conditions: for remaining activity at 0.0156098 µM: fragment concentration 0.0156098 µM; for remaining activity at 0.0780488 µM: fragment concentration 0.0780488 µM; for remaining activity at 0.390244 µM: fragment concentration 0.390244 µM; for remaining activity at 1.95122 µM: fragment concentration 1.95122 µM; for remaining activity at 9.7561 µM: fragment concentration 9.7561 µM; for remaining activity at 48.7805 µM: fragment concentration 48.7805 µM; for remaining activity at 243.902 µM: fragment concentration 243.902 µM
T1 construct: purchased Sino Biological 10082-HNAH
T1 sequence (P08253 110-660): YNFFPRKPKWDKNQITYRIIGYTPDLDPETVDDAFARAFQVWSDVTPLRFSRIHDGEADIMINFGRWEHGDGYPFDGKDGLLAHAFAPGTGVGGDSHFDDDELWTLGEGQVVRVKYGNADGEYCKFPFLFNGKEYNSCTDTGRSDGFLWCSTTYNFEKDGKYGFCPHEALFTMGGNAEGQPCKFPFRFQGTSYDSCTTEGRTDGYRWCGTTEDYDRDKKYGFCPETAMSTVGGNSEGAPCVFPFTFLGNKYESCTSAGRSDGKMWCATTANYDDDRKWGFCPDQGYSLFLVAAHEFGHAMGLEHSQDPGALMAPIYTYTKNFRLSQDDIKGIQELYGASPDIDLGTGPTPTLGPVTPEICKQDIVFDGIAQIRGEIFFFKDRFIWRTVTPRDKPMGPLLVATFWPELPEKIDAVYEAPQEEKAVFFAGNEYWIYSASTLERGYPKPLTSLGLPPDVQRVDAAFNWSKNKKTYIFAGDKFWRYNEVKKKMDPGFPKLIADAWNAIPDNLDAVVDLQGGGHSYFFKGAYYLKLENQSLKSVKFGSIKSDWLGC
Outline: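 Human proMMP-2 and proMMP-9 were activated with 1 mM APMA for 2 h at 37 °C, then used at 6.5 nM (MMP-2) or 10 nM (MMP-9) final in Tris/NaCl/CaCl2/Brij 35 buffer, pH 7.5. After 30 min preincubation with compound at RT, 25 μM FRET peptide substrate was added and fluorescence (ex 280/em 360 nm) followed for 30 min. IC50 came from logistic fits of Vmax.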

MMP-2 [2] = target: T1, MMP-2; experiment: De novo T-DEL selection against MMP-2, NGS decoding; format: binding; conditions: for Enrichment Fold / Count: MMP2 selection; for Count: NGS sequence count per Compound ID (Figure 4a)
Excerpt: Matrix metalloproteinases (MMPs) are zinc-dependent endopeptidases capable of degrading and remodeling extracellular matrix components[46],[47]. They are attractive therapeutic targets as high expression levels were detected in various diseases, such as inflammatory diseases, and at different stages of cancers, including metastasis, invasion, and angiogenesis[47]–[53]. As shown in Supplementary Fig. 3c, we performed selections against the two gelatinases (human MMP-2 and human MMP-9) to identify binding fragments for later design and synthesis of small molecule inhibitors. After selection, the three sub-libraries were decoded, and the enrichment was calculated by dividing the post-selection fraction (count/total counts) by the pre-selection fraction (Fig. 4a and Supplementary Fig. 13).
4 µg of MMP-2/MMP-9 was dissolved in 100 µl of selection buffer containing 25 mM Tris-base, 10 mM CaCl2, 150 mM NaCl, 0.05% Tween 20, pH 7.5. 10 µl of 4-Aminophenylmercuric acetate (APMA) (100 mM) solution was added to the protein solution and incubated at 37 °C for 1 h. After activation, the solution was added on top of 40 µl pre-washed Ni-NTA resin and incubated for 30 min on a rotary shaker. The supernatant was discarded, and the resin was washed three times with the selection buffer.
For each independent selection, three sub-libraries were mixed in the selection buffer with a final concentration of 40 nM of each sub-library in 100 µl. The mixture was heat denatured at 90 °C for 1 min and slowly cooled down to allow the formation of the trio-pharmacophore library. The dynamic dual-pharmacophore DEL was provided by DyNAbind GmbH (Merck, DYNA001).
The assembled library was incubated with the protein-bound solid support for 2 h at RT on a rotary shaker. In parallel, selection on bare solid support served as the negative control to exclude promiscuous binders on the resin. After panning, the supernatant was discarded, and the resin was washed three times with 1 ml selection buffer. Finally, 100 µl of 50 mM Tris buffer, pH 7.4 was added to resuspend the resin and the resin was incubated at 95 °C for 5 min to denature the protein, release, and collect the bound library members.
The eluted library members were subjected to sample preparation for NGS. NGS preparation was achieved by two-step PCR. First, the individual selection was indexed using primers containing unique sequences corresponding to each selection. The amplified product was purified from 2% agarose gel. Second, the purified DNA from all selections were pooled in equal amount and subjected to the 2nd PCR step to attach sequences compatible with the NGS flow cell and the sequencing primers. NGS was performed by Novogene UK with Novaseq 6000. Raw data files (fastq files) obtained were decoded using a custom python script and excel. The sequence reads corresponding to each sample was retrieved by searching for the correct index unique to each selection. Then, the code region was extracted from each sequence and assigned to the corresponding identity. The count of each code in each selection sample was obtained by looping through the total reads and counting the occurrence of each code. The enrichment fold of each compound was calculated by first, dividing the count by the total count to get the abundance, second, the abundance after the selection was divided by the abundance of pre-selection to reflect the distribution change of the compound. Next, the enrichment fold was plotted against the count for each member of the library to give the scatter plots as in Fig. 4.

[3] = Figure 5a, read-out: Normalized activity (Mean)
[4] = Figure 5a, fragment concentration 1219.51 µM, read-out: Normalized activity (Mean)
[5] = MMP-2, concentration 0.0156 µM, read-out: Mean (dose-response, Supplementary fig 17)
[6] = MMP-2, concentration 0.08 µM, read-out: Mean (dose-response, Supplementary fig 17)
[7] = MMP-2, concentration 0.39 µM, read-out: Mean (dose-response, Supplementary fig 17)
[8] = MMP-2, concentration 1.95 µM, read-out: Mean (dose-response, Supplementary fig 17)
[9] = MMP-2, concentration 9.76 µM, read-out: Mean (dose-response, Supplementary fig 17)
[10] = MMP-2, concentration 48.78 µM, read-out: Mean (dose-response, Supplementary fig 17)
[11] = MMP-2, concentration 243.90 µM, read-out: Mean (dose-response, Supplementary fig 17)
[12] = MMP-2, concentration 1219.51 µM, read-out: Mean (dose-response, Supplementary fig 17)

remaining activity at 0.0156098 µM (MMP-2 [1]; [3]) | remaining activity at 0.0780488 µM (MMP-2 [1]; [3]) | remaining activity at 0.390244 µM (MMP-2 [1]; [3]) | remaining activity at 1.95122 µM (MMP-2 [1]; [3]) | remaining activity at 9.7561 µM (MMP-2 [1]; [3]) | remaining activity at 48.7805 µM (MMP-2 [1]; [3]) | remaining activity at 243.902 µM (MMP-2 [1]; [3]) | remaining activity at 1219.51 µM (MMP-2 [1]; [4]) | remaining activity at 0.0156 µM (MMP-2 [1]; [5]) | remaining activity at 0.08 µM (MMP-2 [1]; [6]) | remaining activity at 0.39 µM (MMP-2 [1]; [7]) | remaining activity at 1.95 µM (MMP-2 [1]; [8]) | remaining activity at 9.76 µM (MMP-2 [1]; [9]) | remaining activity at 48.78 µM (MMP-2 [1]; [10]) | remaining activity at 243.9 µM (MMP-2 [1]; [11]) | remaining activity at 1219.51 µM (MMP-2 [1]; [12]) | Compound | also measured
92.7% | 95.8% | 93.9% | 110% | 93.7% | 92.7% | 92.2% | 85.5% | 92.7% | 95.8% | 93.9% | 110% | 93.7% | 92.7% | 92.2% | 85.5% | O=C(O)CNC(=O)NC12CC3CC(CC(C3)C1)C2 [Compound 66] | inhibitory effect (MMP-2 [1]; in words): No inhibitory effects could be measured; also recorded: did not exhibit meaningful activity; Enrichment Fold (MMP-2 [2]; sub-library SL-A (Figure 4a)): 8.24; Count (MMP-2 [2]; sub-library SL-A): 13510; Enrichment Fold (MMP-2 [2]; sub-library SL-C (Figure 4a)): 0.3913; Count (MMP-2 [2]; sub-library SL-C): 81
101% | 93.4% | 108% | 92.2% | 105% | 96.9% | 87.8% | 57.1% | 101% | 93.5% | 108% | 92.2% | 105% | 96.9% | 87.8% | 57.1% | NCc1c[nH]nn1 [Compound 787] | remaining activity at 0.0156 µM (MMP-2 [1]; MMP-2, concentration 0.0156 µM, read-out: Mean (MMP-2, Supplementary fig 16)): 101%; remaining activity at 0.08 µM (MMP-2 [1]; MMP-2, concentration 0.08 µM, read-out: Mean (MMP-2, Supplementary fig 16)): 93.5%; remaining activity at 0.39 µM (MMP-2 [1]; MMP-2, concentration 0.39 µM, read-out: Mean (MMP-2, Supplementary fig 16)): 108%; remaining activity at 1.95 µM (MMP-2 [1]; MMP-2, concentration 1.95 µM, read-out: Mean (MMP-2, Supplementary fig 16)): 92.2%; remaining activity at 9.76 µM (MMP-2 [1]; MMP-2, concentration 9.76 µM, read-out: Mean (MMP-2, Supplementary fig 16)): 105%; remaining activity at 48.78 µM (MMP-2 [1]; MMP-2, concentration 48.78 µM, read-out: Mean (MMP-2, Supplementary fig 16)): 96.9%; remaining activity at 243.9 µM (MMP-2 [1]; MMP-2, concentration 243.90 µM, read-out: Mean (MMP-2, Supplementary fig 16)): 87.8%; remaining activity at 0.0156 µM (MMP-2 [1]; MMP-2, concentration 0.0156 µM, read-out: Mean (MMP-2 dose-response, Supplementary fig 15)): 101%; remaining activity at 0.08 µM (MMP-2 [1]; MMP-2, concentration 0.08 µM, read-out: Mean (MMP-2 dose-response, Supplementary fig 15)): 93.5%; remaining activity at 0.39 µM (MMP-2 [1]; MMP-2, concentration 0.39 µM, read-out: Mean (MMP-2 dose-response, Supplementary fig 15)): 108%; remaining activity at 1.95 µM (MMP-2 [1]; MMP-2, concentration 1.95 µM, read-out: Mean (MMP-2 dose-response, Supplementary fig 15)): 92.2%; remaining activity at 9.75 µM (MMP-2 [1]; MMP-2, concentration 9.75 µM, read-out: Mean (MMP-2 dose-response, Supplementary fig 15)): 105%; remaining activity at 48.76 µM (MMP-2 [1]; MMP-2, concentration 48.76 µM, read-out: Mean (MMP-2 dose-response, Supplementary fig 15)): 96.9%; remaining activity at 243.8 µM (MMP-2 [1]; MMP-2, concentration 243.80 µM, read-out: Mean (MMP-2 dose-response, Supplementary fig 15)): 87.8%; MMP2 SL-A Count (MMP-2 [2]; NGS sequence count of sub-library SL-A building block, de novo T-DEL selection against MMP-2): 589; MMP2 SL-C Count (MMP-2 [2]; NGS sequence count of sub-library SL-C building block, de novo T-DEL selection against MMP-2): 2395; MMP2 SL-A Enrichment Fold (MMP-2 [2]; sub-library SL-A building block, de novo T-DEL selection against MMP-2): 0.846; MMP2 SL-C Enrichment Fold (MMP-2 [2]; sub-library SL-C building block, de novo T-DEL selection against MMP-2): 2.519
